From PubChem BioAssay AID256 (DTP/NCI, 2004)
“And” between values parts separate entries of the source, which are not always exact repeats. Identical values can stand only once. Inconclusive results and toxic doses are left out.

System: CD2F1 mice, L1210 leukemia ip, survival T/C
Experiment: NCI In Vivo Anticancer Drug Screen. Data for tumor model L1210 Leukemia (intraperitoneal) in CD2F1 (CDF1) mice
Details: higher = longer survival
How it was run: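 Vehicle-treated tumor-bearing mice served as controls (C) for compound-treated mice (T). Reported figure is T divided by C.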

[1] = endpoint: mean survival time, dose: 100.0 mg/kg/injection, schedule: Q01DX001 (ip), vehicle: saline with Tween-80
[2] = endpoint: mean survival time, dose: 200.0 mg/kg/injection, schedule: Q01DX001 (ip), vehicle: saline with Tween-80
[3] = endpoint: mean survival time, dose: 400.0 mg/kg/injection, schedule: Q01DX001 (ip), vehicle: saline with Tween-80
[4] = endpoint: mean survival time, dose: 6.25 mg/kg/injection, schedule: Q01DX009 (ip), vehicle: saline with Tween-80
[5] = endpoint: mean survival time, dose: 25.0 mg/kg/injection, schedule: Q01DX009 (ip), vehicle: saline with Tween-80
[6] = endpoint: mean survival time, dose: 100.0 mg/kg/injection, schedule: Q04DX003 (ip), vehicle: saline with Tween-80
[7] = endpoint: mean survival time, dose: 200.0 mg/kg/injection, schedule: Q04DX003 (ip), vehicle: saline with Tween-80
[8] = endpoint: mean survival time, dose: 400.0 mg/kg/injection, schedule: Q04DX003 (ip), vehicle: saline with Tween-80
[9] = endpoint: mean survival time, dose: 50.0 mg/kg/injection, schedule: Q01DX009 (ip), vehicle: saline with Tween-80
[10] = endpoint: mean survival time, dose: 100.0 mg/kg/injection, schedule: Q01DX009 (ip), vehicle: saline with Tween-80
[11] = endpoint: mean survival time, dose: 200.0 mg/kg/injection, schedule: Q01DX009 (ip), vehicle: saline with Tween-80
[12] = endpoint: mean survival time, dose: 25.0 mg/kg/injection, schedule: Q04DX002 (ip), vehicle: saline with Tween-80
[13] = endpoint: mean survival time, dose: 50.0 mg/kg/injection, schedule: Q04DX002 (ip), vehicle: saline with Tween-80
[14] = endpoint: mean survival time, dose: 100.0 mg/kg/injection, schedule: Q04DX002 (ip), vehicle: saline with Tween-80
[15] = endpoint: mean survival time, dose: 200.0 mg/kg/injection, schedule: Q04DX002 (ip), vehicle: saline with Tween-80
[16] = endpoint: mean survival time, dose: 400.0 mg/kg/injection, schedule: Q04DX002 (ip), vehicle: saline with Tween-80

Cc1ccc(S(=O)(=O)Nc2ccccc2OCCOCCOc2ccccc2NS(=O)(=O)c2ccc(C)cc2)cc1
T/C [1]: 103 % of control
T/C [2]: 91 % of control
T/C [3]: 95 % of control

CN/N=C1\CCC2(C)C(CCC3C4CCC(O)C4(C)CCC32)C1 (stereo not given)
T/C (endpoint: mean survival time, dose: 12.5 mg/kg/injection, schedule: Q01DX009 (ip), vehicle: Klucel (hydroxypropylcellulose) (HPC)): 88 % of control
T/C (endpoint: mean survival time, dose: 25.0 mg/kg/injection, schedule: Q01DX009 (ip), vehicle: Klucel (hydroxypropylcellulose) (HPC)): 89 % of control
T/C (endpoint: mean survival time, dose: 50.0 mg/kg/injection, schedule: Q01DX009 (ip), vehicle: Klucel (hydroxypropylcellulose) (HPC)): 91 % of control and 105 % of control

CC(C)CCCCCOC(=O)Nc1cccc2ccccc12
T/C [1]: 92 % of control
T/C [2]: 89 % of control
T/C [3]: 92 % of control

CN(N)c1nc2c(=O)[nH]cnc2n1C1OC(CO)C(O)C1O (stereo not given)
T/C (endpoint: mean survival time, dose: 12.5 mg/kg/injection, schedule: Q01DX005 (ip), vehicle: water): 104 % of control
T/C (endpoint: mean survival time, dose: 25.0 mg/kg/injection, schedule: Q01DX005 (ip), vehicle: water): 101 % of control
T/C (endpoint: mean survival time, dose: 50.0 mg/kg/injection, schedule: Q01DX005 (ip), vehicle: water): 95 % of control
T/C (endpoint: mean survival time, dose: 100.0 mg/kg/injection, schedule: Q01DX005 (ip), vehicle: water): 103 % of control
T/C (endpoint: mean survival time, dose: 200.0 mg/kg/injection, schedule: Q01DX005 (ip), vehicle: water): 95 % of control

O=C(CCl)Nc1cc(C(F)(F)F)ccc1Cl
T/C [4]: 101 % of control
T/C (endpoint: mean survival time, dose: 12.5 mg/kg/injection, schedule: Q01DX009 (ip), vehicle: saline with Tween-80): 101 % of control
T/C [5]: 104 % of control
T/C [6]: 104 % of control
T/C [7]: 97 % of control
T/C [8]: 97 % of control

O=C1NC(=O)C(Cc2ccccc2)C(=O)N1
T/C [9]: 92 % of control
T/C [10]: 96 % of control
T/C [11]: 96 % of control

C=C(Br)CN=C=S
T/C (endpoint: mean survival time, dose: 12.5 mg/kg/injection, schedule: Q04DX003 (ip), vehicle: saline): 94 % of control
T/C (endpoint: mean survival time, dose: 25.0 mg/kg/injection, schedule: Q04DX003 (ip), vehicle: saline): 94 % of control
T/C (endpoint: mean survival time, dose: 50.0 mg/kg/injection, schedule: Q04DX003 (ip), vehicle: saline): 88 % of control

O=[N+]([O-])c1cc(Cl)cc2c1NP(=S)(c1ccccc1)N2 (stereo not given)
T/C [12]: 91 % of control
T/C [13]: 102 % of control
T/C [14]: 91 % of control
T/C [15]: 98 % of control

Cc1ncc(C=C(C(=O)O)C(=O)O)n1Cc1ccccc1
T/C [1]: 98 % of control
T/C [2]: 104 % of control
T/C [3]: 104 % of control

COc1nc(NC2OCC(O)C(O)C2O)c(C(C)=O)c(=O)n1C (stereo not given)
T/C (endpoint: median survival time, dose: 12.5 mg/kg/injection, schedule: Q01DX005 (ip), vehicle: saline with Tween-80): 91 % of control
T/C (endpoint: median survival time, dose: 25.0 mg/kg/injection, schedule: Q01DX005 (ip), vehicle: saline with Tween-80): 98 % of control
T/C (endpoint: median survival time, dose: 50.0 mg/kg/injection, schedule: Q01DX005 (ip), vehicle: saline with Tween-80): 97 % of control
T/C (endpoint: median survival time, dose: 100.0 mg/kg/injection, schedule: Q01DX005 (ip), vehicle: saline with Tween-80): 96 % of control
T/C (endpoint: median survival time, dose: 200.0 mg/kg/injection, schedule: Q01DX005 (ip), vehicle: saline with Tween-80): 96 % of control

O=C(Nc1ccc2c(c1)Cc1cc(Br)ccc1-2)C(F)(F)F
T/C [6]: 101 % of control
T/C [7]: 97 % of control
T/C [8]: 101 % of control

O=C(O)c1ccc(Cl)cc1Nc1ccc(O)cc1
T/C [12]: 96 % of control
T/C [13]: 116 % of control
T/C [14]: 101 % of control and 102 % of control

c1ccc(OCCC[P+](c2ccccc2)(c2ccccc2)c2ccccc2)cc1
T/C (endpoint: mean survival time, dose: 10.0 mg/kg/injection, schedule: Q01DX009 (ip), vehicle: saline): 105 % of control
T/C (endpoint: mean survival time, dose: 20.0 mg/kg/injection, schedule: Q01DX009 (ip), vehicle: saline): 95 % of control
T/C [5]: 95 % of control
T/C (endpoint: mean survival time, dose: 25.0 mg/kg/injection, schedule: Q04DX003 (ip), vehicle: saline with Tween-80): 101 % of control
T/C [9]: 113 % of control
T/C (endpoint: mean survival time, dose: 50.0 mg/kg/injection, schedule: Q04DX003 (ip), vehicle: saline with Tween-80): 92 % of control
T/C [10]: 111 % of control
T/C [6]: 92 % of control

O=C(O)CNCP(=O)(O)O
T/C [10]: 95 % of control
T/C [6]: 105 % of control
T/C [11]: 93 % of control
T/C [7]: 102 % of control
T/C (endpoint: mean survival time, dose: 400.0 mg/kg/injection, schedule: Q01DX009 (ip), vehicle: saline with Tween-80): 89 % of control
T/C [8]: 100 % of control

C=C1CCCCCCCCCCC1O (stereo not given)
T/C [6]: 91 % of control
T/C [7]: 95 % of control
T/C [8]: 91 % of control

Cc1nccc2cc3c(cc12)Cc1ccccc1-3
T/C [14]: 88 % of control
T/C [15]: 92 % of control
T/C [16]: 88 % of control

CC(C)(C)C1=CC(=O)C(C(C)(C)C)=C(N=[N+]=[N-])C1=O
T/C [1]: 101 % of control
T/C [2]: 97 % of control
T/C [3]: 97 % of control

CCOC(=O)C(NC(N)=O)C(=O)OCC
T/C (endpoint: mean survival time, dose: 25.0 mg/kg/injection, schedule: Q01DX009 (ip), vehicle: water): 91 % of control
T/C (endpoint: mean survival time, dose: 50.0 mg/kg/injection, schedule: Q01DX009 (ip), vehicle: water): 91 % of control
T/C (endpoint: mean survival time, dose: 100.0 mg/kg/injection, schedule: Q01DX009 (ip), vehicle: water): 93 % of control
T/C (endpoint: mean survival time, dose: 200.0 mg/kg/injection, schedule: Q01DX009 (ip), vehicle: water): 89 % of control
T/C (endpoint: mean survival time, dose: 400.0 mg/kg/injection, schedule: Q01DX009 (ip), vehicle: water): 93 % of control

O=C1OCC/C1=C/c1cccc(O)c1
T/C (endpoint: mean survival time, dose: 6.25 mg/kg/injection, schedule: Q04DX002 (ip), vehicle: Klucel (hydroxypropylcellulose) (HPC)): 103 % of control
T/C (endpoint: mean survival time, dose: 25.0 mg/kg/injection, schedule: Q04DX002 (ip), vehicle: Klucel (hydroxypropylcellulose) (HPC)): 107 % of control

CN(C)CC1CN(C)CC(CN(C)C)C1(O)C(C(=O)N(C)C)c1ccccc1 (stereo not given)
T/C (endpoint: mean survival time, dose: 75.0 mg/kg/injection, schedule: Q01DX001 (ip), vehicle: other): 98 % of control
T/C (endpoint: mean survival time, dose: 150.0 mg/kg/injection, schedule: Q01DX001 (ip), vehicle: other): 100 % of control
T/C (endpoint: mean survival time, dose: 300.0 mg/kg/injection, schedule: Q01DX001 (ip), vehicle: other): 98 % of control

COc1ccc(/C=C(\C#N)C(=O)NCCc2ccc(OC)c(OC)c2)cc1OC
T/C [14]: 95 % of control
T/C [15]: 95 % of control
T/C [16]: 95 % of control

O=C(NCCCCCCCCNC(=O)N1CC1)N1CC1
T/C (endpoint: mean survival time, dose: 1.5 mg/kg/injection, schedule: Q01DX001 (ip), vehicle: carboxymethylcellulose (CMC)): 117 % of control
T/C (endpoint: mean survival time, dose: 2.25 mg/kg/injection, schedule: Q01DX001 (ip), vehicle: carboxymethylcellulose (CMC)): 111 % of control
T/C (endpoint: mean survival time, dose: 3.3 mg/kg/injection, schedule: Q01DX001 (ip), vehicle: carboxymethylcellulose (CMC)): 121 % of control
T/C (endpoint: mean survival time, dose: 5.0 mg/kg/injection, schedule: Q01DX001 (ip), vehicle: carboxymethylcellulose (CMC)): 122 % of control
T/C (endpoint: mean survival time, dose: 7.5 mg/kg/injection, schedule: Q01DX001 (ip), vehicle: carboxymethylcellulose (CMC)): 152 % of control
T/C (endpoint: mean survival time, dose: 11.0 mg/kg/injection, schedule: Q01DX001 (ip), vehicle: carboxymethylcellulose (CMC)): 183 % of control

CCC1CCCCN1C (stereo not given)
T/C [6]: 90 % of control

CCC12C[N+]3([O-])CCc4c([nH]c5ccccc45)C(C(=O)OC)(c4cc5c(cc4OC)N(C)C4C(O)(C(=O)OC)C(OC(C)=O)C6(CC)C=CCN7CCC54C76)CC(C3)C1O2 (stereo not given)
T/C (endpoint: median survival time, dose: 0.62 mg/kg/injection, schedule: Q01DX009 (ip), vehicle: water): 98 % of control
T/C (endpoint: median survival time, dose: 1.25 mg/kg/injection, schedule: Q01DX009 (ip), vehicle: water): 103 % of control
T/C (endpoint: median survival time, dose: 2.5 mg/kg/injection, schedule: Q01DX009 (ip), vehicle: water): 98 % of control and 105 % of control and 107 % of control
T/C (endpoint: median survival time, dose: 5.0 mg/kg/injection, schedule: Q01DX009 (ip), vehicle: water): 101 % of control and 105 % of control and 110 % of control
T/C (endpoint: median survival time, dose: 10.0 mg/kg/injection, schedule: Q01DX009 (ip), vehicle: water): 115 % of control and 117 % of control
T/C (endpoint: median survival time, dose: 20.0 mg/kg/injection, schedule: Q01DX009 (ip), vehicle: water): 117 % of control and 119 % of control and 112 % of control

C#CCP(=O)(OCC)OCC
T/C (endpoint: mean survival time, dose: 100.0 mg/kg/injection, schedule: Q01DX009 (ip), vehicle: saline): 95 % of control
T/C (endpoint: mean survival time, dose: 200.0 mg/kg/injection, schedule: Q01DX009 (ip), vehicle: saline): 95 % of control
T/C (endpoint: mean survival time, dose: 400.0 mg/kg/injection, schedule: Q01DX009 (ip), vehicle: saline): 94 % of control

CC(NC(=O)CNC(=O)OCc1ccccc1)C(=O)O (stereo not given)
T/C [6]: 98 % of control
T/C [7]: 96 % of control
T/C [8]: 93 % of control

CCN(CC)C(=S)[S][Pb]([CH2]C)([CH2]C)[CH2]C
T/C [4]: 96 % of control
